Reference: a melting point compilation (Tetko et al.; mined from patent text by program, amines drawn as free bases though some values may be those of a salt)

Structure (SMILES) | melting point [°C]
C[C@H]([C@](O)(Cn1cncn1)c1ccc(F)cc1F)S(N)(=O)=O | 195 to 197
CCCCCCCCOC(=O)NCCCCCCNC(=O)OCCCCCCCC | 106 to 107
COC(=O)Oc1ccc([N+](=O)[O-])cc1 | 111 to 112
Cc1ccc(Cc2cnc(NCCCNc3ncc(Cl)cc3Cl)[nH]c2=O)cn1 | 147 to 148
CCCC(=O)Oc1ccc2nc(S(N)(=O)=O)sc2c1 | 122 to 123
CCCn1c(=O)c2[nH]c(/C=C/c3cc(Br)c(OC)c(OC)c3)nc2n(CCC)c1=O | 277 to 278
N#Cc1nn(-c2c(Cl)cc(C(F)(F)F)cc2Cl)cc1C1CC1 | 124
CN1C2CCC1CC(n1cc(-c3ccc(Oc4ccccc4)cc3)c3c(N)ncnc31)C2 (stereo unspecified) | 238 to 250
CN1CCC(O)(C2SCCCS2)CC1 | 115 to 120
CN1CCN(c2nc(-c3ccccc3)c(-c3ccnc(S(C)=O)n3)s2)CC1 (stereo unspecified) | 166 to 169
O=c1ccn(-c2cccc(C(F)(F)F)c2)nc1-c1ccnn1-c1ccccn1 | 189 to 190
CC(C#Cc1cccc(Oc2ccsc2)c1)N(O)C(N)=O (stereo unspecified) | 93 to 95
CN1C(=O)CC[C@]2(C)c3ccc(-c4cccc(Cl)c4)cc3CC[C@@H]12 | 158 to 165
O=C1Cn2ccnc2-c2ccccc2N1 | 265 to 266
Cn1c2ccccc2c2cc(C(=O)O)sc21 | 179 to 180
Cc1cccc(Nc2nc(-c3cn[nH]c3)c(F)s2)n1 | 204
CCOC(=O)Cc1sc(Sc2nc(C)ccc2C(=O)OCC)nc1C | 95 to 97
ClCCCON=C(Cl)c1c(Cl)cccc1Cl | 69 to 71
OCCc1ncn(C(c2ccccc2)(c2ccccc2)c2ccccc2)n1 | 127 to 129
N#CCC1COc2ccccc2C1 (stereo unspecified) | 54 to 55.5

Structure (SMILES) | melting point [°C]
CN(C)C(=O)c1cc2c(OC[C@H](O)CN3CCC(c4ccc5ccccc5c4)CC3)cccc2[nH]1 | 158 to 160
CCCc1nc2c(N)nc3ccc(-c4ccc(CO)cc4)cc3c2s1 | 212 to 214
CCn1cc(C(=O)NCCc2ccccc2)c(=O)c2cnc(N3CCCC3)nc21 | 178 to 180
Cc1c(Cl)c(C(C)(C)C)c(Cl)c(C)c1S(=O)(=O)Cl | 148
CCC(C)Nc1c([N+](=O)[O-])cc(C)c(Cl)c1[N+](=O)[O-] (stereo unspecified) | 40 to 46
CN(N)c1nc(-c2ccccc2)c2cc(Cl)ccc2n1 | 156
Nc1nc(/C(=N/OCC(=O)N2CCCCC2)C(=O)O)cs1 | 177
CC(C)C1N(C)CCCN1C(=O)NC(C)C1CC(N=C=O)CC(C)(C)C1 (stereo unspecified) | 180 to 192
Cc1ccc(C(=CC=O)c2ccc(C)cc2)cc1 | 92 to 93.5
CCOC(=N)c1ccc(-c2nc3c(s2)NCCCC3)cc1 | 141 to 143
CCOC(=O)c1cc(-c2csc(N(C)S(=O)(=O)c3ccccc3)n2)c(=O)[nH]c1C | 231 to 234
O=C1SC(Cc2ccc(OCCON=Cc3cnc4ccccc4c3)cc2)C(=O)N1C(c1ccccc1)(c1ccccc1)c1ccccc1 (stereo unspecified) | 127 to 130
Cc1ccnc2c1N=C(N)c1cccnc1N2C1CC1 | 242 to 244
CCCCCCCSc1ccc(-c2ccc(C#N)cc2)cc1 | 64.4
N#Cc1ccc(-c2ccc(OC3SCC(O)C(O)C3O)c(F)n2)cn1 (stereo unspecified) | 158 to 162
O=C(C=Cc1ccccc1Cl)Nc1cc(Cl)cc(Nc2noc3ccccc23)c1 | 133 to 135
O=S(=O)(O)c1ccc(NCc2ccc(Cl)cc2Cl)cc1 | > 275
Cc1cccc(NS(=O)(=O)c2ccc(NC3=C(Cl)C(=O)c4ccccc4C3=O)cc2)c1 | 234 to 237
COc1cc(OC)nc(Oc2ccccc2C(=O)OC(=O)c2ccccc2Oc2nc(OC)cc(OC)n2)n1 | 120 to 122
COC(=O)c1ccc2oc(=O)n(Cc3cccc(-c4ncc(OCCCN(C)C)cn4)c3)c2c1 | 125

Structure (SMILES) | melting point [°C]
CCOC(=O)NC(=O)c1nc(Cl)c(Cl)[nH]1 | 208
CC(C)(C)OC(=O)NC(CCO)C(=O)OC(c1ccccc1)c1ccccc1 (racemic) | 125 to 129
O=C(Oc1ccccc1)N1Cc2ccccc2C(c2ccccc2Cl)c2ccccc21 (stereo unspecified) | 95 to 99
O=C(O)c1ccc(CC(NC(=O)C(c2ccccc2)c2ccccc2)c2ccccc2)cc1 (stereo unspecified) | 245 to 248
Cn1c(=O)c(C(=O)O)c(-c2ccccc2)c2cc(Cl)ccc21 | 242 to 243
CSC1C(=O)Nc2c(Oc3ccc4ccccc4c3)cccc21 (stereo unspecified) | 174 to 175
COc1ccc(C(=O)Cc2ccnc(NC(=O)c3ccccc3)c2)cc1 | 136 to 139
O=c1[nH]c2cscc2c(=O)n1CCN1CCN(c2cccc(Cl)c2)CC1 | 207 to 208
OC1CSC(Oc2cccc(-c3ccco3)c2)C(O)C1O (stereo unspecified) | 138
Nc1nnc(-c2cccc(Oc3cccc(COc4ccc(Cl)c(Cl)c4)c3)c2)s1 | 128 to 130
COc1cccc2c(CCN(CC3CC3)C3COc4c(F)ccc(C(N)=O)c4C3)coc12 (stereo unspecified) | 130 to 138
O=c1oc(-c2ccccc2)cc(O)c1SCC1CCCCC1 | 141 to 143
O=C(Nc1ccc(-n2nc(-c3ccoc3)cc2OC(F)F)cc1)c1ccncc1F | 172 to 174
O=C(C=Cc1cccc(S(=O)(=O)N2CCN(c3ccccc3F)CC2)c1)NO | 176
COc1cc(S(C)(=O)=O)ccc1-c1nc2cnccc2[nH]1 | 234 to 235
COc1ccc2c(CNCCCCCCCCCCC(=O)O)cc3cc4c(cc3c2c1)OCO4 | 146 to 148
Cc1cc2nc(Cl)cc(NCc3c(C)cccc3C)c2[nH]1 | 310 to 312
Cc1ccc(C)n1-c1cc2[nH]c(=O)c(=O)n(CC(=O)NCc3ccccc3)c2cc1Cl | 244
CCC(NC(=N)NC#N)c1ccccc1 (stereo unspecified) | 121 to 123
Cc1nc(N2CCN(Cc3ccc(F)cc3)C2=O)sc1C(=O)NCc1cnccn1 | 185 to 187

Other lines, results leading:

melting point [°C] | Structure (SMILES)
144 to 146 | O=C(C=C(C(=O)O)c1csc(NC(=O)OCc2ccccc2)n1)OCc1ccccc1
144 to 146 | CC(=O)NC1=NN(c2ccccc2)C(C)C1 (stereo unspecified)
263 to 265 | Cn1c(=O)[nH]c2sccc2c1=O
180 | COCc1cnc2c(NC(=O)c3c(Cl)cccc3Cl)ccc(C)c2c1Cl
135 to 137 | CC(C)(C)OC(=O)N(CC(=O)O)CC(=O)O
65 to 70 | CCOC(=O)c1cnc2c(cnn2CCC(C)C)c1O
102 to 105 | COc1ccc(-c2nc(C(=O)O)cn2-c2ccc(OC)cc2)cc1
157 | CC(C)(C(=O)O)c1ccc(Cl)c([N+](=O)[O-])c1
87 to 90 | COc1ccc2c(c1)c(C)c(-c1ccc(O)cc1)n2Cc1ccc(OCCN2CCCCC2)cc1
192 | COc1cc(C(O)CS(C)(=O)=O)cc(OC)c1-n1cccc1 (stereo unspecified)
45 | CCOC(=O)C(C)(C)Oc1ccc(C(=O)c2cccs2)cc1
108 to 110 | O=C(O)c1cc(CO)ccc1O
277 to 279 | CNc1nc(-c2cccc(NC(=O)c3ccc(S(C)(=O)=O)cc3)c2)c2cc(OC)c(OC)cc2n1
122 to 124 | C#CCOc1ccc(CCNC(=O)C(=O)c2ccc(-c3ccc(Cl)cc3)cc2)cc1OC
115 | CCOc1c(C=NO)c(=O)n(C)c(=O)n1C
150 to 152 | O=C(O)C(=O)CC(=O)c1cccn1Cc1ccccc1-c1ccccc1
170 to 171 | CCOc1nc(=O)n(C(C)C)c(=O)[nH]1
112 | CC(C)(C)OC(=O)c1ccc(C(=O)N[C@H]2CN3C(=O)N(c4cc(Cl)cc(Cl)c4)C(=O)[C@@]3(Cc3ccc(Br)cc3)C2)cc1
> 270 | CCn1c(=O)c2c(nc(/C=C/c3ccc(O)cc3)n2C)n(CC)c1=O
111 to 112 | CC1(C)Oc2ccc(C#N)cc2[C@@H](Br)[C@@H]1O (relative stereo)
65 to 67 | COc1ccc(C=CS(=O)(=O)Cl)cc1

melting point [°C] | Structure (SMILES)
155 to 157 | CCCCOCCOc1ccc(-c2ccc3c(c2)C=C(C(=O)Nc2ccc(O)cc2)CCN3CC(C)C)cc1
92 to 95 | CC(C)(C)[Si](C)(C)O[C@@H]1C[C@]2(O)C[C@@H](OC2=O)C1=O
166 | CC(C)(C)OC(=O)Nc1cc(CC#N)c(C#Cc2ccccc2)cc1[N+](=O)[O-]
184 to 185 | O=C(N[C@H](Cc1ccc(C(F)(F)F)cc1)[C@@H](O)c1cccc(Oc2ccccc2)c1)c1ccc(F)c2ccccc12 (racemic)
79.5 to 80.5 | Nc1cc(Cl)c(Cl)cc1I
81 to 83 | COC(=O)C1=C(C)NC(C)=C(C(=O)OCCN2CCN(C(c3ccccc3)c3ccccc3)CC2)C1c1ccccc1Cl (stereo unspecified)
233 to 234 | O=C(O)Cc1c(C(=O)c2cc(Cl)ccn2)[nH]c2cc(Cl)ccc12
48 to 50 | OCc1cc(-c2ccccc2)no1
226 to 228 | CSc1ncnc2c(C3OC(CO)C(O)C3O)csc12 (stereo unspecified)
254 to 256 | O=C(Nc1cc(O)c(Cl)cc1O)c1ccc(O)c(F)c1
87 to 89 | CCCCC/C=C\C/C=C\CCCCCCCC(=O)Nc1c(OC)cc(OC)cc1OC
198 to 200 | CN1C(=C(C#N)C#N)Oc2ccccc21
188 | COC(=O)c1c(OC)cc2oc(C)cc(=O)c2c1OC
152 to 157 | COc1cc2c(cc1O)CC(C)(C)N=C2
256 to 257 | CCC1=CC(C)(C)Oc2c(OC)cc(Cc3cnc(N)nc3N)cc21
93 to 95 | O=C(O)c1ccc(CCCOCCCCCCBr)s1
215 to 217 | Cc1cc(C)c(Nc2nc(C)ncc2S(=O)(=O)c2ccc(-c3ncccn3)cc2)c(C)c1
168 | CC(C)(O)CC(=O)N[C@H]1CC[C@H](CCN2CCC(c3cccc4c3CCO4)CC2)CC1
121 to 122 | COC(=O)c1cc(NC(C)C)c2cc(Cc3ccc(F)cc3)cnc2c1O
83 to 85 | O=C1CCCC(S(=O)(=O)c2ccccc2)C1 (stereo unspecified)
